Test results published in patent publication US20060172418A1, “Hypercoiling polymers and their use in cellular delivery” (priority 2002, published 2006).
Entries after “also recorded” stand apart in the source; their conditions may differ. Like-named read-outs stand apart in the source and are kept apart here.

Tests used:
CHO cells [1] = assay: Interaction of PD20 with CHO cells at pH 7.4, 6.0 or 5.0 (confocal time course); format: cell-based, Chinese hamster
Method: CHO cells (80,000/mL) were seeded into WilCo dishes and incubated overnight (24 hours) at 37° C. in a humidity controlled incubator in an air atmosphere supplemented with 5% CO2.
The CHO cells were then washed three times with 2 mL D-PBS (Sigma, Poole, Dorset, UK) to remove excess serum and incubated with 2 mL PD20 (1 mg/mL) in serum-free medium (F12 Nutrient Ham Mixture, Sigma, Poole, Dorset, UK) titrated to pH 7.4, 6.0, or 5.0 with 0.1 M HCl.
The CHO cells were then incubated for 10 minutes and washed three times with 2 mL D PBS (pH 7.4, 6.0, or 5.0). 2 mL of fresh D-PBS at the required pH (pH 7.4, 6.0, or 5.0) was added to each dish and the CHO cells were then imaged on a Zeiss LSM410 confocal microscope (Amersham Biosciences, Cardiff, UK) for 1 hour at 10 minute intervals (to reduce photobleaching and cell exposure to the laser). The cells were maintained at 37° C. on an integral heater stage.
The confocal microscope images were quantified using Metamorph™ software to give the fluorescence intensity.

CHO cells [2] = assay: Interaction of PD20 with CHO cells at pH 7.4 and pH 5.5 (fluorescence microscopy); format: cell-based, Chinese hamster; details: 30 minute incubation at 37° C.
Method: A 2 mL suspension of CHO cells (10^5 cells/mL) was seeded into WilCo dishes (Intracel, Royston, UK) and incubated overnight (24 hours) at 37° C. in a humidity controlled incubator in an air atmosphere supplemented with 5% CO2.
The CHO cells were then washed three times with 100 μl of D-PBS (Sigma, Poole, Dorset, UK) to remove excess serum. 2 mL of PD20 (1 mg/mL) in D-PBS (Sigma, Poole, Dorset, UK) at pH 7.4 or titrated to pH 5.5 with 0.1 M HCl was then added to the Willco dishes.
The dishes were incubated for 30 minutes, the PD20 removed (by aspiration) and the cells washed three times with 2 mL D-PBS (Sigma, Poole, Dorset, UK) adjusted to pH 7.4 or pH 5.5 with 1.0 M HCl.
The CHO cells were then re-suspended in 2 mL of D-PBS at pH 7.4 or titrated to pH 5.5 with 0.1 M HCl and fluorescent photomicrogram images obtained on a Laser Scanning Confocal Zeiss LSM410 microscope (λex 535 nm, λem 570 nm) with a ×20 magnification lens (Amersham Biosciences, Cardiff, UK).
Phase contrast images of the CHO cells were obtained on the same microscope in non-fluorescence mode.

HepG2 cells [3] = assay: Co-localisation of PD20 with FITC-Alexa Fluor 488; format: cell-based, Human; details: 1 mg/mL, 15 minutes, pH 7.4
Method: HepG2 cells (80,000/mL) were seeded into WilCo dishes, and incubated overnight (24 hours) at 37° C. in a humidity controlled incubator in an air atmosphere supplemented with 5% CO2.
The HepG2 cells were then incubated for a period of 15 minutes with a mixture of PD20 at a concentration of 1 mg/mL and the endosomal labelling fluorophore FITC-Alexa Fluor 488 (Cambridge Biosciences, Cambridge, UK) at a concentration of 50 μg/mL in serum free medium (Dulbecco's Modified Eagle Medium, DMEM) appropriate for HepG2 cells (total volume 2 mL) at pH 7.4.
The supernatant was then removed and the cells washed three times with 2 mL DMEM. 2 mL of fresh D-PBS was added to each dish and the CHO cells were then imaged on a Zeiss LSM410 confocal microscope (λex 535 nm, λem 570 nm for PD20, λex 495 nm, λem 518 nm for FITC Alexa Fluor 488) (Amersham Biosciences, Cardiff, UK).

MCF7/MXR cells [4] = assay: Polymer-conjugated doxorubicin uptake (flow cytometry); format: cell-based, human; details: 2 mM doxorubicin or equivalent; for uptake into cells: serum-free medium
Method: (§1) Control solutions, containing polymer (with no doxorubicin) and medium alone were also prepared. […] Samples (1 mL) of each test solution were placed in Eppindorf centrifuge tubes and placed in an incubator at 37° C. under a 5% CO2 atmosphere. 2×10^6 cells of each type were suspended in 300 μL of cell culture media (10% foetal calf serum, 2 mM L-Glutamine, 100 U/mL penicillin and 100 μg/mL streptomycin) and incubated at 37° C. under a 5% CO2 atmosphere. The study was initiated by adding 10 μL of cells to each test sample. After selected exposure times, the cells were pelleted by centrifuge and placed on ice. The cells were then re-suspended in phosphate buffer and analysed using a flow cytometer gated to count […] (approximately 10% of the total cell count). A histogram of fluorescence intensity vs. number of events, and the median value of fluorescence intensity, was recorded for each sample. Background fluorescence for cells alone, or for cells with DMSO, was subtracted from the corresponding test samples.

MCF7 cells [5] = assay: as above; format: cell-based, human; details: 2 mM doxorubicin or equivalent; for uptake into cells: serum-free medium
Method: as §1

HepG2 cells [6] = assay: Uptake and internalisation of PD30 (LSCM); format: cell-based, Human; details: pH 7.4, 37° C., 30 minutes; PD30 1 mg/mL, bis-amino Cy3 0.01 mg/mL
Method: (§2) CHO or HepG2 cells (80,000 cells/mL) were seeded into Willco dishes and incubated overnight (24 hours) at 37° C. in a humidity controlled incubator in an air atmosphere supplemented with 5% CO2.
(§3) The cells were then washed three times with 2 mL D-PBS (Sigma, Poole, Dorset, UK) to remove excess serum. 2 mL of PD30 at a concentration of 1 mg/mL in D-PBS (pH 7.4) was added, and the cells incubated for 10 minutes at 37° C. in a humidity controlled incubator in an air atmosphere supplemented with 5% CO2.
(§4) Controls were prepared similarly, by the addition of 2 mL of bis-amino Cy3 at a concentration of 0.01 mg/mL in D-PBS (pH 7.4), or 2 mL of bis-sulphonic acid Cy3 at a concentration of 0.01 mg/mL in D-PBS (pH 7.4), followed by incubation for 10 minutes at 37° C. in a humidity controlled incubator in an air atmosphere supplemented with 5% CO2.
(§5) Laser Scanning Confocal Microscopy (LSCM) images were then obtained at 10 minute intervals, using an Olympus FV300 LSCM (Department of Chemical Engineering, University of Cambridge, Cambridge, Cambridgeshire, UK). The cells remained on the microscope for the duration of the imaging experiments.

CHO cells [7] = assay: Uptake and internalisation of PD30 (LSCM); format: cell-based, Chinese hamster; details: pH 7.4, 37° C., 30 minutes; PD30 1 mg/mL, free dyes 0.01 mg/mL
Method: as §2, §3, §4, §5

[8] = at 25° C.; cited from earlier work
[9] = Spectrophotometric titration with HCl; format: physicochemical; details: read-out: pKa of the bis-amino groups
Method: Aqueous solutions of polymers were titrated by with 1.0 N HCl delivered to an Aminco-SDP-125 spectrofluorimeter, equipped with a flow through cell, from a titration vessel, via a peristaltic pump.
Spectrophotometric titrations were carried out for a mixture of poly(L-lysine iso-phthalamide) at a concentration of 0.5 g/l and free bis-amino Cy3 at a fluorophore concentration of 0.26 mM (0.1 g/l), which yields the maximum emission intensity for this polymer/fluorophore combination.

MCF7/MXR cells [10] = details: 5 days
Method: (§6) Subsequently, a standard MTT (3-(4,5-dimethylthiazol-2-yl)-2,5-diphenyl-2H-tetrazolium bromide) assay was performed in order to assess cell viability.
(§7) The total DMSO concentration was adjusted to 1% by volume, and the cells incubated at 37° C. under a 5% CO2 atmosphere for 5 days. […] Subsequently, a standard MTT assay was performed in order to assess cell viability.

MCF7 cells [11] = details: 5 days
Method: as §6, §7

Row | Molecule | effect of 1% DMSO on uptake (MCF7/MXR cells [4]) | uptake into cells (MCF7/MXR cells [4]) | effect of 1% DMSO on uptake (MCF7 cells [5]) | uptake into cells (MCF7 cells [5]) | nuclear staining (HepG2 cells [6]) | subcellular localisation after uptake (HepG2 cells [6]) | subcellular localisation after uptake (CHO cells [7]) | further results
1 | Poly(L-lysine-co-Cy3-iso-phthalamide) [PD20] | – | – | – | – | – | – | – | initial relative fluorescence intensity of cells at pH 6.0 and pH 5.0 versus pH 7.4 (CHO cells [1]; 1 mg/mL): more than three times larger; time at which fluorescence intensity peaked (CHO cells [1]; pH 5.0, 1 mg/mL): 20 min; time at which fluorescence intensity peaked (CHO cells [1]; pH 6.0, 1 mg/mL): 30 min; relative fluorescence intensity of the cells with time (CHO cells [1]; pH 7.4, 1 mg/mL): gradual increase; adsorption onto the extracellular membrane of CHO cells (CHO cells [2]; pH 5.5, 1 mg/mL): extensive adsorption; adsorption onto the membrane of CHO cells (CHO cells [2]; pH 7.4, 1 mg/mL): weakly adsorbed; co-localisation with endosomal stain FITC-Alexa Fluor 488 (HepG2 cells [3]): uptake of the PD20 into the endosomal compartment
2 | poly(lysine iso-phthalamide-co-lysine DOX iso-phthalamide) [polymer-conjugated doxorubicin] | little effect | taken up into cells | little effect | taken up into cells | – | – | – | –
3 | Poly(L-lysine-co-Cy3-iso-phthalamide) [PD30] | – | – | – | – | heavy staining in the nucleus; also recorded: extensive nuclear staining | localised in the nucleus | localised in the nucleus | nuclear staining (CHO cells [7]): heavily stained; also recorded: clearly associated with the nucleus
4 | NCCCC[C@H](N)C(=O)O [lysine] | – | – | – | – | – | – | – | pKa [8]: about 2.18
5 | CCN1/C(=C/C=C/C2=[N+](CC)c3ccc(CN)cc3C2(C)C)C(C)(C)c2cc(CN)ccc21 [bis-amino Cy3, reference compound] | – | – | – | – | No nuclear staining | localised in the endosome | localised in the endosome | pKa [9]: 9.5
6 | COc1cccc2c1C(=O)c1c(O)c3c(c(O)c1C2=O)C[C@@](O)(C(=O)CO)C[C@@H]3O[C@H]1C[C@H](N)[C@H](O)[C@H](C)O1 [doxorubicin, reference compound] | significantly enhances | taken up into cells | significantly enhances | taken up into cells | – | – | – | cytotoxic effect (MCF7/MXR cells [10]; 1% by volume of DMSO): significant cytotoxic effects; cytotoxic effect (MCF7/MXR cells [10]; without DMSO): significant cytotoxic effects; cytotoxic effect (MCF7 cells [11]; 1% by volume of DMSO): significant cytotoxic effects; cytotoxic effect (MCF7 cells [11]; without DMSO): significant cytotoxic effects
